# Laboratory results taken from patent publication US7893196B2, “Polypeptides having antimicrobial activity and polynucleotides encoding same” (Novozymes Aderium Biotech A/S, priority 2004, dated 2011).
# Columns and labels:
# Type in all cases: cell-based
# B. subtilis ATCC 6633 = assay: Radial diffusion assay; settings: up-concentrated S. cerevisiae supernatants
# Experimental: (§1) The supernatants described above in Example 10 were analyzed in a radial diffusion assay following a previously published protocol for detection of antimicrobial activity (Lehrer et al. (1991), Ultra sensitive assays for endogenous antimicrobial polypeptides, J Immunol Methods 137: 167-173). Target bacteria (10^6 colony forming units (CFU)) were added to 10 ml of underlay agarose (1% low electro-endosmosis agarose, 0.03% Trypticase soy broth, 10 mM sodium phosphate, pH 7.4, 37 degrees Celsius). Suspension was solidified on an INTEGRID Petri Dish (Becton Dickinson Labware, NJ). A 3 mm Gel Puncher was used to make holes in the underlay agarose (Amersham Pharmacia Biotech, Sweden). Samples were added to the holes and incubated at 37 degrees Celsius, 3 hours. An overlay was poured on top and the plate was incubated overnight (LB media, 7.5% Agar). Antimicrobial activity was seen as bacterial clearing zones around the wells. Living cells was counterstained by adding 10 ml, 0.2 mM MTT (3-(4,5-Dimethylthiazol-2-yl)-2,5-diphenyltetrazolium bromide Thiazolyl blue). All standard protocols has been described elsewhere (Sambrook, Fritsch, and Maniatis, 1989).
# (§2) The results in Table 2 show zones of inhibition of up-concentrated samples against three ATCC strains.
# M. luteus ATCC 9341 = assay: Radial diffusion assay; settings: up-concentrated S. cerevisiae supernatants
# Experimental: as §1, §2
# S. carnosus ATCC 51365 = assay: Radial diffusion assay; settings: up-concentrated S. cerevisiae supernatants
# Experimental: as §1, §2
# [1] = tested on: Staphylococcus aureus, ATCC 29213 (MSSA); assay: MIC microdilution assay (NCCLS/CLSI); settings: tested 0.06-32 μg/ml
# Experimental: (§3) Purified Oystrisin and Piceasin were evaluated for antimicrobial activity in a microdillution assay. The Minimal Inhibitory Concentration (MIC) was determined following the NCCLS/CLSI guidelines from CLSI (Clinical and Laboratory Standards Institute).
# (§4) Oystrisin and Piceasin were tested at the following concentrations: 32; 16; 8; 4; 2; 1; 0.50; 0.25; 0.13; and 0.06 μg/ml.
# [2] = tested on: Staphylococcus aureus, ATCC 43300 (MRSA); assay: MIC microdilution assay (NCCLS/CLSI); settings: tested 0.06-32 μg/ml
# Experimental: as §3, §4
# [3] = tested on: Staphylococcus carnosus, ATCC 51365; assay: MIC microdilution assay (NCCLS/CLSI); settings: tested 0.06-32 μg/ml
# Experimental: as §3, §4
# [4] = tested on: Staphylococcus epidermidis, ATCC 12228; assay: MIC microdilution assay (NCCLS/CLSI); settings: tested 0.06-32 μg/ml
# Experimental: as §3, §4
# [5] = tested on: Streptococcus pneumoniae, ATCC 49619; assay: MIC microdilution assay (NCCLS/CLSI); settings: tested 0.06-32 μg/ml
# Experimental: as §3, §4
# [6] = tested on: Streptococcus pyogenes, ATCC 12344; assay: MIC microdilution assay (NCCLS/CLSI); settings: tested 0.06-32 μg/ml
# Experimental: as §3, §4
Substance,zones of inhibition (B. subtilis ATCC 6633) [mm],zones of inhibition (M. luteus ATCC 9341) [mm],zones of inhibition (S. carnosus ATCC 51365) [mm],MIC [1] [µg/mL],MIC [2] [µg/mL],MIC [3] [µg/mL],MIC [4] [µg/mL],MIC [5] [µg/mL],MIC [6] [µg/mL]
Gibbosin: the polypeptide shown as amino acids 1 to 38 of SEQ ID NO:6; Mesobuthus gibbosus defensin (MKTIVLLFVLALVFCTLEMGMVEAGFGCPFNQGRCHRH; listed as Mesobuthus gibbosus),8,6,9,–,–,–,–,–,–
Oystrisin: the polypeptide shown as amino acids 1 to 43 of SEQ ID NO:8; Crassostrea gigas defensin (MKVFVLLTLAVLLMVSADMAFAGFGCPGNQLKCNNHCKSISCR; Crassostrea gigas),–,–,–,32,16,0.5,32,0.13,0.03
Piceasin: the polypeptide shown as amino acids 1 to 40 of SEQ ID NO:2; Picea glauca defensin (MKFTISIIAALAFFAQGIVAAPAPIPEAAAVAAPEAEPKA; listed as Picea glauca),–,–,–,>32,>32,16,>32,16,1
Virgisin-1: the polypeptide shown as amino acids 1 to 40 of SEQ ID NO:4; Crassostrea virginica defensin (MKVFVLLTIAVMLMVSADVALAGFGCPLNRYQCHSHCQSI; listed as Crassostrea virginica),6,5,7,–,–,–,–,–,–
Virgisin-2: the polypeptide shown as amino acids 1 to 42 of SEQ ID NO:10; Crassostrea virginica defensin (MKVFVLLTIAVMLLVSADVATADNGCPRRPRICHNRCIYKGR; listed as Crassostrea virginica),5,0,8,–,–,–,–,–,–
